Columns and labels:
Type in all cases: cell-based
U251 = test system: U251
SW-620 = test system: SW-620
OVCAR-5 = test system: OVCAR-5
HCT-15 = test system: HCT-15
T-47D = test system: T-47D
Renal Cancer = test system: Renal Cancer
Melanoma = test system: Melanoma
SK-OV-3 = test system: SK-OV-3
IGROV1 = test system: IGROV1
KM12 = test system: KM12
HS 578T = test system: HS 578T
RPMI-8226 = test system: RPMI-8226
UACC-257 = test system: UACC-257
UO-31 = test system: UO-31
M14 = test system: M14
TK-10 = test system: TK-10
SF-539 = test system: SF-539
SF-268 = test system: SF-268
CAKI-1 = test system: CAKI-1
HOP-62 = test system: HOP-62
HCT-116 = test system: HCT-116
SNB-19 = test system: SNB-19
NCI-H23 = test system: NCI-H23
Prostate Cancer = test system: Prostate Cancer
OVCAR-3 = test system: OVCAR-3
786-0 = test system: 786-0

## COc1cc(NC2=NC(=O)C(=Cc3c[nH]c4ccccc34)S2)cc(OC)c1OC [Les-6418, 5-((1H-Indol-3-yl)methylene)-2-((3,4,5-trimethoxyphenyl)amino)thiazol-4(5H)-one]
U251; Homo sapiens, U-251, U251, 48 h
  GI50: 3.27 µM
U251; Homo sapiens, U-251, U251, 48 h, read-out: LC50 (the source's name)
  CC50: 54.7 µM
U251; U251, 48 h
  TGI: 15.7 µM
U251; U251, MG_MID_60/value
  SI (TGI): 1.18
U251; U-251, 10 μM, one dose, 48 h
  Growth %: −79.79%
SW-620; Homo sapiens, SW-620, 48 h
  GI50: 3.1 µM
SW-620; Homo sapiens, SW-620, 48 h, read-out: LC50 (the source's name)
  CC50: 85 µM
SW-620; SW-620, 48 h
  TGI: 21.8 µM
SW-620; SW-620, MG_MID_60/value
  SI (TGI): 0.85
OVCAR-5; Homo sapiens, OVCAR-5, 48 h
  GI50: 4.58 µM
  LC50 (concentration killing 50% of cells): 44.1 µM
OVCAR-5; OVCAR-5, 48 h
  TGI: 17.7 µM
OVCAR-5; OVCAR-5, MG_MID_60/value
  SI (TGI): 1.05
HCT-15; HCT-15, 48 h
  TGI: 12.4 µM
HCT-15; HCT-15, MG_MID_60/value
  SI (TGI): 1.50
HCT-15; Homo sapiens, HCT-15, 48 h
  GI50: 1.79 µM
HCT-15; Homo sapiens, HCT-15, 48 h, read-out: LC50 (the source's name)
  CC50: 37.7 µM
T-47D; 48 h
  TGI: 19.7 µM
T-47D; Homo sapiens, T47D, 48 h
  GI50: 3.58 µM
T-47D; Homo sapiens, T47D, 48 h, read-out: LC50 (the source's name)
  CC50: 61.2 µM
T-47D; MG_MID_60/value
  SI (TGI): 0.94
Renal Cancer; Homo sapiens, Renal Cancer subpanel mean, read-out: MG_MID GI50
  GI50: 4.22 µM
Renal Cancer; Homo sapiens, Renal Cancer subpanel mean, read-out: MG_MID LC50
  CC50: 44.6 µM
Renal Cancer; Renal Cancer subpanel mean
  MG_MID TGI: 14.5 µM
Renal Cancer; Renal Cancer subpanel, MG_MID_60/value
  SI (MG_MID TGI): 1.28
Melanoma; Homo sapiens, Melanoma subpanel mean, read-out: MG_MID GI50
  GI50: 3 µM
Melanoma; Homo sapiens, Melanoma subpanel mean, read-out: MG_MID LC50
  CC50: 43.1 µM
Melanoma; Melanoma subpanel mean
  MG_MID TGI: 14.9 µM
Melanoma; Melanoma subpanel, MG_MID_60/value
  SI (MG_MID TGI): 1.25
SK-OV-3; Homo sapiens, SK-OV-3, 48 h
  GI50: 2.56 µM
SK-OV-3; Homo sapiens, SK-OV-3, 48 h, read-out: LC50 (the source's name)
  CC50: 38.5 µM
SK-OV-3; SK-OV-3, 48 h
  TGI: 10.3 µM
SK-OV-3; SK-OV-3, MG_MID_60/value
  SI (TGI): 1.81
IGROV1; Homo sapiens, IGROV-1, IGROV1, 48 h
  GI50: 4.91 µM
IGROV1; Homo sapiens, IGROV-1, IGROV1, 48 h, read-out: LC50 (the source's name)
  CC50: 57.2 µM
IGROV1; IGROV1, 48 h
  TGI: 21.6 µM
IGROV1; IGROV1, MG_MID_60/value
  SI (TGI): 0.86
KM12; Homo sapiens, KM12, 48 h
  GI50: 0.977 µM
KM12; Homo sapiens, KM12, 48 h, read-out: LC50 (the source's name)
  CC50: 70.7 µM
KM12; KM12, 48 h
  TGI: 16.8 µM
KM12; KM12, MG_MID_60/value
  SI (TGI): 1.11
HS 578T; 48 h
  TGI: 11.9 µM
HS 578T; Homo sapiens, 48 h
  GI50: 2.33 µM
HS 578T; Homo sapiens, 48 h, read-out: LC50 (the source's name)
  CC50: > 100 µM
HS 578T; MG_MID_60/value
  SI (TGI): 1.56
RPMI-8226; Homo sapiens, RPMI-8226, 48 h
  GI50: 5.73 µM
RPMI-8226; Homo sapiens, RPMI-8226, 48 h, read-out: LC50 (the source's name)
  CC50: > 100 µM
RPMI-8226; RPMI-8226, 48 h
  TGI: > 100 µM
RPMI-8226; RPMI-8226, MG_MID_60/value
  SI (TGI): 0.19
UACC-257; Homo sapiens, UACC-257, 48 h
  GI50: 5.18 µM
UACC-257; Homo sapiens, UACC-257, 48 h, read-out: LC50 (the source's name)
  CC50: 52.7 µM
UACC-257; UACC-257, 48 h
  TGI: 21.1 µM
UACC-257; UACC-257, MG_MID_60/value
  SI (TGI): 0.88
UO-31; Homo sapiens, UO-31, 48 h
  GI50: 3.43 µM
UO-31; Homo sapiens, UO-31, 48 h, read-out: LC50 (the source's name)
  CC50: 38.8 µM
UO-31; UO-31, 48 h
  TGI: 13.7 µM
UO-31; UO-31, MG_MID_60/value
  SI (TGI): 1.36
M14; Homo sapiens, M14, 48 h
  GI50: 2.02 µM
M14; Homo sapiens, M14, 48 h, read-out: LC50 (the source's name)
  CC50: 55.6 µM
M14; M14, 48 h
  TGI: 15.9 µM
M14; M14, MG_MID_60/value
  SI (TGI): 1.17
TK-10; Homo sapiens, TK-10, 48 h
  GI50: 8.56 µM
TK-10; Homo sapiens, TK-10, 48 h, read-out: LC50 (the source's name)
  CC50: 55.6 µM
TK-10; TK-10, 48 h
  TGI: 22.8 µM
TK-10; TK-10, MG_MID_60/value
  SI (TGI): 0.82
SF-539; Homo sapiens, SF-539, 48 h
  GI50: 2.49 µM
SF-539; Homo sapiens, SF-539, 48 h, read-out: LC50 (the source's name)
  CC50: 35.5 µM
SF-539; SF-539, 10 μM, one dose, 48 h
  Growth %: −85.30%
SF-539; SF-539, 48 h
  TGI: 9.95 µM
SF-539; SF-539, MG_MID_60/value
  SI (TGI): 1.87
SF-268; Homo sapiens, SF-268, 48 h
  GI50: 3.56 µM
SF-268; Homo sapiens, SF-268, 48 h, read-out: LC50 (the source's name)
  CC50: 81.3 µM
SF-268; SF-268, 48 h
  TGI: 20.0 µM
SF-268; SF-268, MG_MID_60/value
  SI (TGI): 0.93
CAKI-1; CAKI-1, 48 h
  TGI: 10.3 µM
CAKI-1; CAKI-1, MG_MID_60/value
  SI (TGI): 1.81
CAKI-1; Homo sapiens, CAKI-1, 48 h
  GI50: 0.84 µM
CAKI-1; Homo sapiens, CAKI-1, 48 h, read-out: LC50 (the source's name)
  CC50: 33.1 µM
HOP-62; HOP-62, 48 h
  TGI: 15.7 µM
HOP-62; HOP-62, MG_MID_60/value
  SI (TGI): 1.18
HOP-62; Homo sapiens, HOP-62, 48 h
  GI50: 2.69 µM
  LC50: 65.9 µM
HCT-116; HCT-116, 48 h
  TGI: 10.2 µM
HCT-116; HCT-116, MG_MID_60/value
  SI (TGI): 1.82
HCT-116; Homo sapiens, HCT-116, 48 h
  GI50: 1.1 µM
HCT-116; Homo sapiens, HCT-116, 48 h, read-out: LC50 (the source's name)
  CC50: 50.6 µM
SNB-19; Homo sapiens, SNB-19, 48 h
  GI50: 6.6 µM
SNB-19; Homo sapiens, SNB-19, 48 h, read-out: LC50 (the source's name)
  CC50: 52.2 µM
SNB-19; SNB-19, 48 h
  TGI: 21.2 µM
SNB-19; SNB-19, MG_MID_60/value
  SI (TGI): 0.88
NCI-H23; Homo sapiens, NCI-H23, 48 h
  GI50: 5.33 µM
NCI-H23; Homo sapiens, NCI-H23, 48 h, read-out: LC50 (the source's name)
  CC50: 54 µM
NCI-H23; NCI-H23, 48 h
  TGI: 21.1 µM
NCI-H23; NCI-H23, MG_MID_60/value
  SI (TGI): 0.88
Prostate Cancer; Homo sapiens, Prostate Cancer subpanel mean, read-out: MG_MID GI50
  GI50: 3.61 µM
Prostate Cancer; Homo sapiens, Prostate Cancer subpanel mean, read-out: MG_MID LC50
  CC50: 70.8 µM
Prostate Cancer; Prostate Cancer subpanel mean
  MG_MID TGI: 19.9 µM
Prostate Cancer; Prostate Cancer subpanel, MG_MID_60/value
  SI (MG_MID TGI): 0.93
OVCAR-3; Homo sapiens, OVCAR-3, 48 h
  GI50: 0.517 µM
OVCAR-3; Homo sapiens, OVCAR-3, 48 h, read-out: LC50 (the source's name)
  CC50: 34 µM
OVCAR-3; OVCAR-3, 10 μM, one dose, 48 h
  Growth %: 76.96%
OVCAR-3; OVCAR-3, 48 h
  TGI: 5.32 µM
OVCAR-3; OVCAR-3, MG_MID_60/value
  SI (TGI): 3.50
786-0; 786-0, 10 μM, one dose, 48 h
  Growth %: −73.06%
786-0; 786-0, 48 h
  TGI: 11.9 µM
786-0; 786-0, MG_MID_60/value
  SI (TGI): 1.56
786-0; Homo sapiens, 786-0, 48 h
  GI50: 2.72 µM
786-0; Homo sapiens, 786-0, 48 h, read-out: LC50 (the source's name)
  CC50: 55.7 µM
